As a reminder, the Ki is the equilibrium dissociation constant of an inhibitor or competing ligand from its target.

Test [1] can be described thus: Protection from global cerebral ischemia (survival time of mice after MgCl2). The following applies: female mice, i.p., before 0.1 ml of 80% strength MgCl2.6H2O solution; for ED50: Mus musculus, ip, read-out: Test 2 ED 50% (dose which increases survival time of the animals by 50%), global ischemia. In kind it is in vivo. How it is done:
2. Protection from global cerebral ischemia
Female mice (weight 24-27 g) received the active substance intraperitoneally before administration of 0.1 ml of an 80% strength solution (g/l) of MgCl2.6H2 O. Untreated control animals survive 24 sec. on average after administration of MgCl2. The dose of active substances which increases the survival time of the animals by 50% compared with placebo-treated animals was determined.

Test [2] is described as follows: Protection from acute cerebral hypoxia (survival time of mice in 3.5 parts O2/96.5 parts N2). The format is in vivo. The following applies: female mice, i.p., hypoxia 3.5 parts oxygen/96.5 parts nitrogen; for ED50: Mus musculus, ip, read-out: Test 1 ED 50% (dose which increases survival time of the animals by 50%), hypoxia. How it is done:
1. Protection from acute cerebral hypoxia
Female mice (weight 22-28 g) were placed in a glass tube (diameter 6 cm) through which was passed a mixture of 3.5 parts of oxygen and 96.5 parts of nitrogen. Untreated control animals survived 138 sec. on average in a glass tube of this type. The dose of active substances which, after intraperitoneal administration thereof, increases the survival time of the animals by 50% was determined.

A further test has as its target T1, calcium channel (Cavia porcellus, UniProt A0A286X7I0).
T1 construct: guinea-pig skeletal muscle membranes; from tissue; host or cells: guinea-pig skeletal muscle membranes
The test is described as follows: Affinity to the calcium channel: inhibition of specific (S)-3H-devapamil binding to guinea-pig skeletal muscle membranes. The following applies: 1 nM (S)-3H-devapamil, pH 7.4, 20° C., 60 minutes, read-out: Test 3 Ki. How it is done: 3. Affinity of the test substances to the calcium channel.
The affinity of the test substances to the calcium channel was determined by inhibition of the specific (S)-^3 H-devapamil binding to guinea-pig skeletal muscle membranes (FEBS Lett. 176, 371 (1984)). For this, the membranes were incubated with a fixed concentration of 1 nM (S)-^3 H-devapamil and increasing concentrations of test substance in 50 mM tris-HCl/0.1 mM phenylmethylsulfonyl fluoride, (pH 7.4) at 20° C. for 60 minutes. The non-specific binding was determined using 10^-6 M (S)-devapamil. The mixtures were then filtered through glass fiber filters, and the amount of (S)-^3 H-devapamil retained on the filter was determined by liquid scintillation measurement. The Ki values were determined by non-linear regression analysis.

T1 sequence (A0A286X7I0 1-1867): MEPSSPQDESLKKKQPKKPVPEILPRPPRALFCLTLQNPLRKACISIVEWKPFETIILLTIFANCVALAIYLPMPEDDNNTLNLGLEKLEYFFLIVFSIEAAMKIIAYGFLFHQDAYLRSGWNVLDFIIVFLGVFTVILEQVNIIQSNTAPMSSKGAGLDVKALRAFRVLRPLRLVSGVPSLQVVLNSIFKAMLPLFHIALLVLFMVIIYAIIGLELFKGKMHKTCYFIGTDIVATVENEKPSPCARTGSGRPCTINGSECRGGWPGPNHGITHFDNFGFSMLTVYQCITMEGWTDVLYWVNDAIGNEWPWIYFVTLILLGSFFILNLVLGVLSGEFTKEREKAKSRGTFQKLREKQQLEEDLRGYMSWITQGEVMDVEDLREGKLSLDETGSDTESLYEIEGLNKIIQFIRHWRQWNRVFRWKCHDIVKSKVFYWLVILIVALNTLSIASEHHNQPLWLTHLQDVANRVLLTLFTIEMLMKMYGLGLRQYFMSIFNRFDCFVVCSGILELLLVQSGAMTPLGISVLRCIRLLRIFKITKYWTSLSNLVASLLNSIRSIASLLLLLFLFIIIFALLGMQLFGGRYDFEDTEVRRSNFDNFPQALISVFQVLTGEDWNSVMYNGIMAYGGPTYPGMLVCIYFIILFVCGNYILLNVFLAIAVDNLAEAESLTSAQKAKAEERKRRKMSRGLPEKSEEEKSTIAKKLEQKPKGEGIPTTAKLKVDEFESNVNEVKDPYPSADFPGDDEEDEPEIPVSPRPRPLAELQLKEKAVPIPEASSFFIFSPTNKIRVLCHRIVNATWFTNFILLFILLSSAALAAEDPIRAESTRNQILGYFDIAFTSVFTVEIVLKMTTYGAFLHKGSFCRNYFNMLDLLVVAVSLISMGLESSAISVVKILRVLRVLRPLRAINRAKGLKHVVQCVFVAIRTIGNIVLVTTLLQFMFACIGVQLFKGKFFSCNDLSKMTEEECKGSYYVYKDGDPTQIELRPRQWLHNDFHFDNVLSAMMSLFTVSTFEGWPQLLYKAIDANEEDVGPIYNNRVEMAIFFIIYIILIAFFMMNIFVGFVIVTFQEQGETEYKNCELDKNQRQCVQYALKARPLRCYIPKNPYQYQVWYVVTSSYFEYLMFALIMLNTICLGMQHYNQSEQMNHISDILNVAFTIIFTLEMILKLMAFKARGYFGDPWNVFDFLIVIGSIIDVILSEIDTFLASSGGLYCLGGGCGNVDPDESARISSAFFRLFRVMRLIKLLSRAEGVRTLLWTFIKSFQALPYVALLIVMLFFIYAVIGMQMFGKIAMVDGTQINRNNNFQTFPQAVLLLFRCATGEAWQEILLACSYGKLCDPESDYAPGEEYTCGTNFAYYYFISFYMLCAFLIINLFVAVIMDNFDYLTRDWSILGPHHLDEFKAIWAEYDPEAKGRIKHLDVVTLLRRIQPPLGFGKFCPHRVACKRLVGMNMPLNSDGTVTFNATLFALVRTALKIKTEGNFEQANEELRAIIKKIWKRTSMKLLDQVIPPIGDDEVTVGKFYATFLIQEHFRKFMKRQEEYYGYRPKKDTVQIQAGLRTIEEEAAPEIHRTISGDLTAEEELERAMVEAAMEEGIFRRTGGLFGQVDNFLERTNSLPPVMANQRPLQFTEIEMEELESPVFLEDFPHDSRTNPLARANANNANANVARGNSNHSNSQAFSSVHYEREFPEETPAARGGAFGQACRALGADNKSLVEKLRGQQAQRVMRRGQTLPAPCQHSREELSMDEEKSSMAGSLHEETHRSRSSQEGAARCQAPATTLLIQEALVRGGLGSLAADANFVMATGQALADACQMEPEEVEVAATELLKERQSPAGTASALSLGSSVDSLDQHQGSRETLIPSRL

As for `Fc1ccc(C(c2ccc(F)cc2)N2CCN(C/C=C/c3ccccc3)CC2)cc1` [flunarizine, reference compound], the results for the ED50 in test [1] and in test [2] were 26.5 mg/kg and more than 100 mg/kg, respectively.
For `OC(CSc1ccccc1)CN1CCN(CCC(c2ccccc2)c2ccccc2)CC1` (centres unmarked) [Example 35], the ED50 in test [1] came out at 14 mg/kg; in test [2], 8.7 mg/kg. Besides, the Ki on calcium channel turned out to be 159 nM.
Take `OC(COc1ccc(Cl)cc1)CN1CCN(CC(c2ccccc2)c2ccccc2)CC1` (centres unmarked) [Example 9, 1-[2,2-diphenylethyl]-4-[2-hydroxy-3-(4-chlorophenoxy)propyl]piperazine]: the ED50 in test [1] is 12 mg/kg; in test [2], 7.3 mg/kg. The Ki on calcium channel was determined as 30 nM.
Regarding `OC(COc1ccc(F)cc1)CN1CCN(CCCC(c2ccccc2)c2ccccc2)CC1` (centres unmarked) [Example 22, 1-[4,4-diphenylbutyl]-4-[2-hydroxy-3-(4-fluorophenoxy)propyl]piperazine], the ED50 was determined as 8.8 mg/kg in test [1] and 6 mg/kg in test [2]. The Ki on calcium channel came to 15 nM.
As for `N#Cc1ccccc1OCC(O)CN1CCN(CCCC(c2ccc(F)cc2)c2ccc(F)cc2)CC1` (centres unmarked) [Example 17, 1-[4,4-bis(4-fluorophenyl)butyl]-4-[2-hydroxy-3-(2-cyanophenoxy)propyl]piperazine], the ED50 in test [1] was 27 mg/kg; in test [2], 16 mg/kg. Besides, the Ki on calcium channel was 10 nM.
Consider `OC(COc1ccc(F)cc1)CN1CCN(CCC(c2ccccc2)c2ccccc2)CC1` (single isomer, unassigned; (-)) [Example 31], for which the ED50 was determined as 9.3 mg/kg in test [1] and 4.1 mg/kg in test [2]. Also, the inhibition constant (Ki) on calcium channel was 149 nM.
Consider `OC(COc1ccccc1Cl)CN1CCN(CCCC(c2ccc(F)cc2)c2ccc(F)cc2)CC1` (centres unmarked) [Example 13, 1-[4,4-bis(4-fluorophenyl)butyl]-4-[2-hydroxy-3-(c-chlorophenoxy)propyl]piperazine], for which, in test [1], the “Test 2 ED 50% (dose which increases survival time of the animals by 50%), global ischemia” value is recorded as 39 mg/kg. In addition, the Ki on calcium channel worked out at 10 nM. Further, in test [2], the “Test 1 ED 50% (dose which increases survival time of the animals by 50%), hypoxia” value is on record as 6.9 mg/kg.
As to `OC(COc1ccc(Cl)c(Cl)c1)CN1CCN(CCCC(c2ccccc2)c2ccccc2)CC1` (centres unmarked) [Example 23, 1-[4,4-diphenylbutyl]-4-[2-hydroxy-3-(3,4-dichlorophenoxy)propyl]piperazine], the ED50 turned out to be 41 mg/kg in test [1] and 8.6 mg/kg in test [2]. Further, the Ki on calcium channel worked out at 22 nM.
Turning to `Cc1ccc(C(CCCN2CCN(CC(O)COc3ccc(F)cc3)CC2)c2ccc(C)cc2)cc1` (centres unmarked) [Example 24, 1-[4,4-bis(4-methylphenyl)butyl]-4-[2-hydroxy-3-(4-fluorophenoxy)propyl]piperazine], the ED50 in test [1] turned out to be 40 mg/kg; in test [2], 23 mg/kg. The Ki at calcium channel turned out to be 12 nM.
For the compound `OC(COc1ccc(F)cc1)CN1CCN(CCC(c2ccccc2)c2ccccc2)CC1` (single isomer, unassigned; (+)) [Example 32], the “Test 2 ED 50% (dose which increases survival time of the animals by 50%), global ischemia” value in test [1] is on record as 9.5 mg/kg. Besides, the inhibition constant Ki at calcium channel worked out at 249 nM. For the same compound, the “Test 1 ED 50% (dose which increases survival time of the animals by 50%), hypoxia” value in test [2] was 4.2 mg/kg.
For the compound `OC(COc1ccccc1)CN1CCN(CCCC(c2ccccc2)c2ccccc2)CC1` (centres unmarked) [Example 4, 1-[4,4-diphenylbutyl]-4-[2-hydroxy-3-phenoxypropyl]-piperazine], the ED50 in test [1] was 8.6 mg/kg; in test [2], 6.6 mg/kg. Moreover, the inhibition constant (Ki) at calcium channel is 18 nM.
On to `Cc1cccc(C)c1NC(=O)CN1CCN(CCCC(c2ccc(F)cc2)c2ccc(F)cc2)CC1` [lidoflazine, reference compound], for which the figures for the ED50 in test [1] and in test [2] were more than 46 mg/kg and 10 mg/kg, respectively. Also, the Ki on calcium channel was 20 nM.
Take `OC(CSc1ccc(F)cc1)CN1CCN(CCCC(c2ccc(F)cc2)c2ccc(F)cc2)CC1` (centres unmarked) [Example 34, 1-[4,4-bis(4-fluorophenyl)butyl]-4-[2-hydroxy-3-(4-fluoro-thiophenoxy)propyl]piperazine]: the ED50 is 28 mg/kg in test [1] and 9 mg/kg in test [2]. At calcium channel, the Ki turned out to be 9 nM.
For `OC(COc1cccc(C(F)(F)F)c1)CN1CCN(CCCC(c2ccc(F)cc2)c2ccc(F)cc2)CC1` (centres unmarked) [Example 11, 1-[4,4-bis(4-fluorophenyl)butyl]-4-[2-hydroxy-3(3-trifluoromethylphenoxy)propyl]piperazine], the results for the ED50 in test [1] and in test [2] were 46 mg/kg and 4.9 mg/kg, respectively. The Ki at calcium channel came to 8 nM.
In the case of `OC(COc1ccccc1)CN1CCN(CCC(c2ccccc2)c2ccccc2)CC1` (centres unmarked) [Example 7, 1-[3,3-diphenylpropyl]-4-[2-hydroxy-3-phenoxypropyl]piperazine], the values for the ED50 in test [1] and in test [2] were 10 mg/kg and 4.6 mg/kg, respectively. In addition, on calcium channel, the Ki was 280 nM.
Take `OC(COc1ccc(F)cc1)CN1CCN(CCCC(c2ccc(F)cc2)c2ccc(F)cc2)CC1` (single isomer, unassigned; (+)) [Example 30, (+)-1[4,4-bis(4-fluorophenyl)butyl]-4-[2-hydroxy-3(4-fluorophenoxy)propyl]piperazine]: in test [1], the ED50 was 17 mg/kg. Moreover, the Ki at calcium channel worked out at 10 nM. Besides, in test [2], the “Test 1 ED 50% (dose which increases survival time of the animals by 50%), hypoxia” value was 4.0 mg/kg.
Regarding `OC(COc1ccccc1)CN1CCN(CCCC(c2ccc(F)cc2)c2ccc(F)cc2)CC1` (centres unmarked) [Example 3, 1-[4,4-bis(4-fluorophenyl)butyl]-4-[2-hydroxy-3-phenoxypropyl]piperazine], the ED50 in test [1] was determined as 13 mg/kg; in test [2], 10 mg/kg. In addition, the Ki at calcium channel amounted to 8 nM.
For `OC(COc1ccc(Cl)cc1)CN1CCN(CCCC(c2ccc(F)cc2)c2ccc(F)cc2)CC1` (centres unmarked) [Example 1, 1-[4,4-bis(4-Fluorophenyl)butyl]-4-[2-hydroxy-3(4-chlorophenoxy)propyl]piperazine], the results for the ED50 in test [1] and in test [2] were 27 mg/kg and 11 mg/kg, respectively. Further, the inhibition constant Ki at calcium channel is 8 nM.
As to `OC(COc1ccc(F)cc1)CN1CCN(CCCC(c2ccc(F)cc2)c2ccc(F)cc2)CC1` (single isomer, unassigned; (-)) [Example 29, (-)-1[4,4-bis(4-fluorophenyl)butyl]-4-[2-hydroxy-3(4-fluorophenoxy)propyl]piperazine], the “Test 2 ED 50% (dose which increases survival time of the animals by 50%), global ischemia” value in test [1] amounted to 13 mg/kg. The Ki on calcium channel was 9 nM. In addition, the “Test 1 ED 50% (dose which increases survival time of the animals by 50%), hypoxia” value in test [2] stood at 1.6 mg/kg.
As for `O=[N+]([O-])c1ccc(OCC(O)CN2CCN(CCCC(c3ccc(F)cc3)c3ccc(F)cc3)CC2)cc1` (centres unmarked) [Example 16, 1-[4,4-bis(4-fluorophenyl)butyl]-4-[2-hydroxy-3-(4-nitrophenoxy)propyl]piperazine], the values for the ED50 in test [1] and in test [2] were 38 mg/kg and 5.5 mg/kg, respectively. Besides, the Ki on calcium channel came to 11 nM.
Consider `OC(COc1ccc(F)cc1)CN1CCCN(CCCC(c2ccc(F)cc2)c2ccc(F)cc2)CC1` (centres unmarked) [Example 33, 1-[4,4-bis(4-fluorophenyl)butyl]-4-(2-hydroxy-3(4-fluorophenoxy)propyl]homopiperazine], for which the ED50 is 31 mg/kg in test [1] and 4.8 mg/kg in test [2]. Besides, the inhibition constant (Ki) at calcium channel was 13 nM.
The corresponding values for `OC(COc1ccc(F)cc1)CN1CCN(CCCC(c2cccc(F)c2)c2cccc(F)c2)CC1` (centres unmarked) [Example 27, 1-[4,4-bis(3-fluorophenyl)butyl]-4-[2-hydroxy-3-(4-fluorophenoxy)propyl]piperazine] are 29 mg/kg, 14 mg/kg and 22 nM.
In the case of `OC(COc1ccc(Cl)c(Cl)c1)CN1CCN(CCCC(c2ccc(F)cc2)c2ccc(F)cc2)CC1` (centres unmarked) [Example 12, 1-[4,4-bis(4-fluorophenyl)butyl]-4-[2-hydroxy-3-(3,4-dichlorophenoxy)propyl]piperazine], the values for the ED50 in test [1] and in test [2] were 45 mg/kg and 4.7 mg/kg, respectively. Moreover, the Ki on calcium channel came to 16 nM.
The matching figures for `OC(COc1ccc(F)cc1)CN1CCN(CCCC(c2ccc(F)cc2)c2ccc(F)cc2)CC1` (centres unmarked) [Example 2, 1-[4,4-bis(4-fluorophenyl)butyl]-4-[2-hydroxy-3(4-fluorophenoxy)propyl]piperazine]: 20 mg/kg, 11 mg/kg and 9.1 nM.
Regarding `OC(COc1ccc(Cl)cc1)CN1CCN(CCC(c2ccccc2)c2ccccc2)CC1` (centres unmarked) [Example 8, 1-[3,3-diphenylpropyl]-4-[2-hydroxy-3(4-chlorophenoxy)propyl]piperazine], the ED50 in test [1] is 13 mg/kg; in test [2] it was 5 mg/kg. The Ki at calcium channel was found to be 160 nM.

The values are drawn from patent US5342839A, “2-hydroxy-3-phenoxy-propyl-substituted piperazines, their preparation and use” (BASF Aktiengesellschaft, priority 1988, dated 1994).
